# Laboratory results taken from publication PMC8213057, “Targeting ALK2: An Open Science Approach to Developing Therapeutics for the Treatment of Diffuse Intrinsic Pontine Glioma” (Journal of Medicinal Chemistry, 2020).
# Values joined by “and” are separate entries in the source; they are usually repeats but may differ in a detail not shown here. Identical values can stand only once.
# Legend:
# CDK2/cyclin A = CDK2/cyclin A (Homo sapiens, UniProt P24941); assay: biochemical; conditions: read-out: % enzyme activity, 1 μM; Run 1, Run 2
# PHKg2 = biological target: T1, PHKg2 (Homo sapiens, UniProt P15735); assay: biochemical; conditions: read-out: % enzyme activity, 1 μM; Run 1, Run 2
# T1 sequence (P15735 1-406): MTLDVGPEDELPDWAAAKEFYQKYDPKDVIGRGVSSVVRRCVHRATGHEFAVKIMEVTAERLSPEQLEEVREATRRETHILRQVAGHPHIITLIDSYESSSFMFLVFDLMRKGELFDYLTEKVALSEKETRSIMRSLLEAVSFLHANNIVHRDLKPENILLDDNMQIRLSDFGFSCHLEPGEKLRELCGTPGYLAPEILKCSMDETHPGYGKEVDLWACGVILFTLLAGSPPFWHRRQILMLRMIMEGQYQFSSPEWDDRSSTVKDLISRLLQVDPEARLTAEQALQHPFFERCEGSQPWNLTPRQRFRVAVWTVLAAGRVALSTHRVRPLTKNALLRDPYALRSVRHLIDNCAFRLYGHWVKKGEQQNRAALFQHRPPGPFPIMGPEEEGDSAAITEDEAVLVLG
# MAK = biological target: T2, MAK (Homo sapiens, UniProt P20794); conditions: 1 μM; Run 1, Run 2
# T2 sequence (P20794 1-623): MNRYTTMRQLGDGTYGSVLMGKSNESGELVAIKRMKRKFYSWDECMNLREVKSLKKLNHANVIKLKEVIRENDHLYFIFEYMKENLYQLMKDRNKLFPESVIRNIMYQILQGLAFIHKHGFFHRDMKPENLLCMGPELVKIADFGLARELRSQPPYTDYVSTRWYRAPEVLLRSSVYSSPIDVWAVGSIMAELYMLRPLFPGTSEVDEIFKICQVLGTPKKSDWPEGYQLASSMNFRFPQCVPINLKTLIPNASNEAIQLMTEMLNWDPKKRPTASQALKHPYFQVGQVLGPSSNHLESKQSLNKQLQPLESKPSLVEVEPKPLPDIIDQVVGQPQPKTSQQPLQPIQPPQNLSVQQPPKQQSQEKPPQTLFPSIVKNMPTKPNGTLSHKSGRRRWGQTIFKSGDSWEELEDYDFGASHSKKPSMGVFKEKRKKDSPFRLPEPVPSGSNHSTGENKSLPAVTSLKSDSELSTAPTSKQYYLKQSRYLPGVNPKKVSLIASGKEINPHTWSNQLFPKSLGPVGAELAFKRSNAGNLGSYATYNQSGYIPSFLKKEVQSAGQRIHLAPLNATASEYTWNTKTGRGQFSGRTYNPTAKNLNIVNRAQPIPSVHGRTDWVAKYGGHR
# EPHA6 = biological target: T3, EPHA6 (Homo sapiens, UniProt Q9UF33); conditions: 1 μM; Run 1, Run 2
# T3 sequence (Q9UF33 23-1036): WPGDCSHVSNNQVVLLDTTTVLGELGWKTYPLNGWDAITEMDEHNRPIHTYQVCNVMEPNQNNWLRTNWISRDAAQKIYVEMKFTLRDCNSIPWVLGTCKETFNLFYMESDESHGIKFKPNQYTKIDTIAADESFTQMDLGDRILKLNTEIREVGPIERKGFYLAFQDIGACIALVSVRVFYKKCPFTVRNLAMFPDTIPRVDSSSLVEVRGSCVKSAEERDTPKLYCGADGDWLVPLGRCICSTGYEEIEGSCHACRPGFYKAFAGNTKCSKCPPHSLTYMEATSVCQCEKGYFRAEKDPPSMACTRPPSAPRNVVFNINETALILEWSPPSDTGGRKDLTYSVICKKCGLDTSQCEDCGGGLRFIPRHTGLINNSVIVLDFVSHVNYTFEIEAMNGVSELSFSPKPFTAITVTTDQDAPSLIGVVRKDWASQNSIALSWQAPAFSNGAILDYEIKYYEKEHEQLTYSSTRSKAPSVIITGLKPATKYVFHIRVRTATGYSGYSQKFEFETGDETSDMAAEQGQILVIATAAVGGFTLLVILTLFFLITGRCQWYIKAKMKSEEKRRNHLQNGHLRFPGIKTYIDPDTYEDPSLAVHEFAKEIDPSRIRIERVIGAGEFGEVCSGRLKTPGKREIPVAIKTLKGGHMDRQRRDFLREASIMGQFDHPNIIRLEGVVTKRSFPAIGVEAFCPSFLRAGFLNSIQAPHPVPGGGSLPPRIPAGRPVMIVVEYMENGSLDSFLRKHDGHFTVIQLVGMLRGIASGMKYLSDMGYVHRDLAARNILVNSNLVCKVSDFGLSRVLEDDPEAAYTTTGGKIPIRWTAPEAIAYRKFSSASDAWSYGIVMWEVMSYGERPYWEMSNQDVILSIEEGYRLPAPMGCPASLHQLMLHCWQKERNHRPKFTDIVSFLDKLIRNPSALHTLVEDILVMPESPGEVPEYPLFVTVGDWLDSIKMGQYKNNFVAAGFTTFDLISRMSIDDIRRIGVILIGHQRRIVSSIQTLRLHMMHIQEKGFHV
# PLK1 = PLK1 (Homo sapiens, UniProt P53350); conditions: 1 μM; Run 1, Run 2
# RIPK3 = RIPK3 (Homo sapiens, UniProt Q9Y572); conditions: 1 μM; Run 1, Run 2
# CK2a = CK2a (Homo sapiens, UniProt P68400); assay: biochemical; conditions: read-out: % enzyme activity, 1 μM; Run 1, Run 2
# MLK3/MAP3K11 = MLK3/MAP3K11 (Homo sapiens, UniProt Q16584); assay: biochemical; conditions: read-out: % enzyme activity, 1 μM; Run 1, Run 2
# p70S6Kb/RPS6KB2 = p70S6Kb/RPS6KB2 (Homo sapiens, UniProt Q9UBS0); assay: biochemical; conditions: read-out: % enzyme activity, 1 μM; Run 1, Run 2
# CDK17/cyclin Y (PCTK2) = CDK17/cyclin Y (PCTK2) (Homo sapiens, UniProt Q00537); conditions: 1 μM; Run 1, Run 2
# Sequence of CDK17/cyclin Y (PCTK2) (Q00537 whole entry): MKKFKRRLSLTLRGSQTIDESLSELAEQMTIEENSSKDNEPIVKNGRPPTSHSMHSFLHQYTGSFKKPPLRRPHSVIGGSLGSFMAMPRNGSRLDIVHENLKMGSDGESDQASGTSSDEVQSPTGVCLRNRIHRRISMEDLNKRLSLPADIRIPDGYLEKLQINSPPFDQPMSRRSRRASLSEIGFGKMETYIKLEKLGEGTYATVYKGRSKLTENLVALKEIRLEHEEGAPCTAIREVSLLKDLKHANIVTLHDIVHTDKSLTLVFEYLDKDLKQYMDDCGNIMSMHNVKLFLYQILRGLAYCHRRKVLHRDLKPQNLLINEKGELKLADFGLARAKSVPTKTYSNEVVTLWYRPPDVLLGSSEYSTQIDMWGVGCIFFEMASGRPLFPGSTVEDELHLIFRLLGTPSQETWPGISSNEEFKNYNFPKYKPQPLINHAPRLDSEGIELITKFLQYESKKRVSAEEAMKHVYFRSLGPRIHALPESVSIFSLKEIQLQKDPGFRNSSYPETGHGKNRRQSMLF
# Sequence of CDK17/cyclin Y (PCTK2) (Q8ND76 whole entry partner): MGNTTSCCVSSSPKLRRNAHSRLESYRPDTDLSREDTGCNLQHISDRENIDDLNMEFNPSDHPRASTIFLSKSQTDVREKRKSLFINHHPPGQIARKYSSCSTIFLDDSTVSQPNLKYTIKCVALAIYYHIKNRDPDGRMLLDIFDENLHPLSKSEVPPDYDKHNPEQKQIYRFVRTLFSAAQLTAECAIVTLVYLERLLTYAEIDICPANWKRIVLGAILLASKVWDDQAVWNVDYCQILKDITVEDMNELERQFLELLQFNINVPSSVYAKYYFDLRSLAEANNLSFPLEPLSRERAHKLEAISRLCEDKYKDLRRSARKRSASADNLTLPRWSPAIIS
# Sequence of p70S6Kb/RPS6KB2 (Q9UBS0 whole entry): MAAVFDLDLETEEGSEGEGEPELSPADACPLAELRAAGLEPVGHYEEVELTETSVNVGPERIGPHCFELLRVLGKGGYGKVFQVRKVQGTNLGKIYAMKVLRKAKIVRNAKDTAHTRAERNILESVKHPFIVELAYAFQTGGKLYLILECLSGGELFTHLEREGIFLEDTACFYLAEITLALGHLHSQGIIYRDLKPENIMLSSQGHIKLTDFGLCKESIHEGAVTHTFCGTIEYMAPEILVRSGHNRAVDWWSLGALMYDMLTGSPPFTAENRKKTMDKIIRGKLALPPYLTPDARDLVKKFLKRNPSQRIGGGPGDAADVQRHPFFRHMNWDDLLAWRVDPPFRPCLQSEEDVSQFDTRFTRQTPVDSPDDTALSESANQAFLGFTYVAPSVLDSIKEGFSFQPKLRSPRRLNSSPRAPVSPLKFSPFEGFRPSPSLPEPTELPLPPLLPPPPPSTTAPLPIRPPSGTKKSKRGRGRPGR
# Sequence of CK2a (P68400 whole entry): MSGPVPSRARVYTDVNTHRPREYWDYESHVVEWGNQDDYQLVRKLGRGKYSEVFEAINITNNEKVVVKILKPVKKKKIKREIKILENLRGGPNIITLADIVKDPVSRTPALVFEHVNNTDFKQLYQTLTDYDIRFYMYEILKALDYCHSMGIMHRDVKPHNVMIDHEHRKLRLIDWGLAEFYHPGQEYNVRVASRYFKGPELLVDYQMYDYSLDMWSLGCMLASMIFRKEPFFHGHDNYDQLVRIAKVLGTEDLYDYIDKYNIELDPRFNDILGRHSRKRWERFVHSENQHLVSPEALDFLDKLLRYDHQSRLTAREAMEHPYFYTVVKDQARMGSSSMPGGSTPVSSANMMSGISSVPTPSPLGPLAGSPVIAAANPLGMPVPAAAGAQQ
# Sequence of MLK3/MAP3K11 (Q16584 whole entry): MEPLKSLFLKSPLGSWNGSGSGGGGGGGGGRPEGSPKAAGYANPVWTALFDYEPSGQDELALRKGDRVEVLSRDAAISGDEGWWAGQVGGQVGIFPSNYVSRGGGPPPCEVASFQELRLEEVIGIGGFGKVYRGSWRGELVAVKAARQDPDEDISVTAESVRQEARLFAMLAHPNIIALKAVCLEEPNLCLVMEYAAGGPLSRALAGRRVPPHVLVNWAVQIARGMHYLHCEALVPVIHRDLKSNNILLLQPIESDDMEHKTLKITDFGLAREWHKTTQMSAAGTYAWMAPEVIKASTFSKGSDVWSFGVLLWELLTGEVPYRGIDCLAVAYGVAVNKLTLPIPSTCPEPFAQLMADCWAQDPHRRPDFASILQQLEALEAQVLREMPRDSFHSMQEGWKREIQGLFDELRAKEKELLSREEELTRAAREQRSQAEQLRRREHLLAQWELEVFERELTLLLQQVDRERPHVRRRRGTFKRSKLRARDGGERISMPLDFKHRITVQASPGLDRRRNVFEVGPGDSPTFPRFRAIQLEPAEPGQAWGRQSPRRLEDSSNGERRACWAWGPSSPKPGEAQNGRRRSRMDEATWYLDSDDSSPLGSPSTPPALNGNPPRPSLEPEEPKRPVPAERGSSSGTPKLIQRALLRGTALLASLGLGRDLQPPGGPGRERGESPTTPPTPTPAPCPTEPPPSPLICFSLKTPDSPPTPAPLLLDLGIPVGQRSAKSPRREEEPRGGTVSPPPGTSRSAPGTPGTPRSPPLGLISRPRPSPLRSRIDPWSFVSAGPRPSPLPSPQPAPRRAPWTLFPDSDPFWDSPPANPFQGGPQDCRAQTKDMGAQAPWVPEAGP
# Sequence of RIPK3 (Q9Y572 whole entry): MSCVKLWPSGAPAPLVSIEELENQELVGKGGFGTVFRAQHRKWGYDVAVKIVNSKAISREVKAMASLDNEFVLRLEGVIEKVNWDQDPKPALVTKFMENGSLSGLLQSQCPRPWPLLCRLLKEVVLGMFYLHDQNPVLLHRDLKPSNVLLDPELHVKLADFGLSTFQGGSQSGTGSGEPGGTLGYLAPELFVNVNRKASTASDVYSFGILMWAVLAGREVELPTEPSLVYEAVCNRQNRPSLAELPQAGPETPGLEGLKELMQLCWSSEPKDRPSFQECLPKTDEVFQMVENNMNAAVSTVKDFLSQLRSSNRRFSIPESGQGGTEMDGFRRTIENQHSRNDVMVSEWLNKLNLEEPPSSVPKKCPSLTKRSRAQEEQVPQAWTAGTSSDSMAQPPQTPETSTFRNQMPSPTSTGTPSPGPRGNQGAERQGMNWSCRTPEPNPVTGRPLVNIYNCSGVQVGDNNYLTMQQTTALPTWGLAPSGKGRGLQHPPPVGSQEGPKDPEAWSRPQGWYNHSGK
# Sequence of PLK1 (P53350 whole entry): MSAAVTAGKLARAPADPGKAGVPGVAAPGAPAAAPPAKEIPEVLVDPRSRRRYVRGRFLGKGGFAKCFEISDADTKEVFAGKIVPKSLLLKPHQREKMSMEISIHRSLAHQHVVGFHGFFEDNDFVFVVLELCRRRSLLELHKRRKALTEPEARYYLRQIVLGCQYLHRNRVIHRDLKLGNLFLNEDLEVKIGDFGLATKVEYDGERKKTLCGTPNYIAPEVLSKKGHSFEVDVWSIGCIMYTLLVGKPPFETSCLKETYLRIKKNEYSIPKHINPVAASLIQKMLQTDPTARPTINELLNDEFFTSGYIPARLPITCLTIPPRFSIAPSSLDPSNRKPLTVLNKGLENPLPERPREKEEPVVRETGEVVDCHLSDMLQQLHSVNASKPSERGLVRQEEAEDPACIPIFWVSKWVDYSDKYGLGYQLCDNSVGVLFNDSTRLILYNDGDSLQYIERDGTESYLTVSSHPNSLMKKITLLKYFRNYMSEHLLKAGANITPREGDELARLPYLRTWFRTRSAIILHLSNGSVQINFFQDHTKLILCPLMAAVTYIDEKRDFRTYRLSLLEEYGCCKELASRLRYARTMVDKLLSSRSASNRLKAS
Compound,remaining activity at 1 µM (CDK2/cyclin A),remaining activity at 1 µM (PHKg2),% enzyme activity (MAK),% enzyme activity (EPHA6),% enzyme activity (PLK1),% enzyme activity (RIPK3),remaining activity at 1 µM (CK2a),remaining activity at 1 µM (MLK3/MAP3K11),remaining activity at 1 µM (p70S6Kb/RPS6KB2),% enzyme activity at 1 μM (ALK3/BMPR1A),% enzyme activity (CDK17/cyclin Y (PCTK2))
"COc1cc(-c2cncc(-c3ccc(N4CCN(C)CC4)cc3)c2C)cc(F)c1C(N)=O [Compound 26a, 2-Fluoro-6-methoxy-4-(4-methyl-5-(4-(4-methylpiperazin-1-yl)phenyl)pyridin-3-yl)benzamide]",100%,94.9%,98.28%,103.54%,91.24%,101.40%,92.5%,99.4%,97.3%,40.2% and 38.4%,95.45%
"COc1cc(-c2cncc(-c3ccc(N4C[C@@H](C)N(C)[C@@H](C)C4)cc3)c2C)cc(F)c1C(N)=O [Compound 26c, 2-Fluoro-6-methoxy-4-(4-methyl-5-(4-((3R,5S)-3,4,5-trimethylpiperazin-1-yl)phenyl)pyridin-3-yl)benzamide]",100%,96.7%,100.81%,103.73%,92.70%,102.83%,87.2%,96.7%,102%,50.5% and 50%,99.91%
